Experimental data from patent publication US20190315823A1, “SMALL CATIONIC ANTI-BIOFILM AND IDR PEPTIDES” (priority 2013, published 2019).
Ends that are not written are not given here.

What was measured:
[1] = system: methicillin resistant Staphylococcus aureus (MRSA) biofilm; details: approximate peptide concentration […] (around 3 μg/ml); compared to untreated samples
Method: Methods of assessment of anti-biofilm activity—Biofilm formation was initially analyzed using a static abiotic solid surface assay as described elsewhere (de la Fuente-Nunez et al., 2012). Dilutions (1/100) of overnight cultures were incubated in BM2 biofilm-adjusted medium [62 mM potassium phosphate buffer (pH 7), 7 mM (NH4)2SO4, 2 mM MgSO4, 10 μM FeSO4, 0.4% (wt/vol) glucose, 0.5% (wt/vol) Casamino Acids], or a nutrient medium such as Luria Broth, in polypropylene microtiter plates (Falcon, United States) in the absence (control) or presence of peptide. Peptide was added at time zero (prior to adding the diluted, overnight cultures) in varying concentrations, and the decrease in biofilm formation was recorded at 22-46 h for most bacteria. Planktonic cells were removed, biofilm cells adhering to the side of the tubes were stained with crystal violet, and absorbance at 595 nm was measured using a microtiter plate reader (Bio-Tek Instruments Inc., United States). Some peptides were screened against two Gram negative organisms, P. aeruginosa and K. pneumoniae using a Bioflux apparatus (AutoMate Scientific, Berkeley, Calif.; http://www.autom8.com/bioflux_biofilm.html), which allows for the high-throughput, real-time analysis of biofilms.

[2] = system: human peripheral blood mononuclear cells (MCP-1); test: SPOT-synthesized derivative screen: production of chemokine MCP-1; format: cell-based; details: Table 12, No LPS, human PBMC, peptide at ~18-24 μM; for MCP1: background subtracted 139 (HH2 derivatives), 170 (1018 derivatives), 242 (1002 and hybrid peptides) pg/ml
Method: Venous blood (20 ml) from healthy volunteers was collected in Vacutainer® collection tubes containing sodium heparin as an anticoagulant (Becton Dickinson, Mississauga, ON) in accordance with UBC ethical approval and guidelines. Blood was diluted 1:1 with complete RPMI 1640 medium and separated by centrifugation over a Ficoll-Paque® Plus (Amersham Biosciences, Piscataway, N.J., USA) density gradient. White blood cells were isolated from the buffy coat, washed twice in RPMI 1640 complete medium, and the number of peripheral blood mononuclear cells (PBMC) was determined by Trypan blue exclusion. PBMC (5×10^5) were seeded into 12-well tissue culture dishes (Falcon; Becton Dickinson) at 0.75 to 1×10^6 cells/ml at 37° C. in 5% CO2. The above conditions were chosen to mimic conditions for circulating blood monocytes entering tissues at the site of infection via extravasation.
Following incubation of the cells under various treatment regimens, the tissue culture supernatants were centrifuged at 1000×g for 5 min, then at 10,000×g for 2 min to obtain cell-free samples. Supernatants were aliquoted and then stored at −20° C. prior to assay for various chemokines by capture ELISA (eBioscience and BioSource International Inc., CA, USA respectively)

[3] = system: LPS-stimulated human peripheral blood mononuclear cells (IL1-β); format: cell-based; details: Table 12, cells stimulated with 10 ng/ml LPS; for IL1β Production: LPS alone 1313 (HH2 derivatives), 1927 (1018 derivatives), 2455 (1002 and hybrid peptides) pg/ml
Method: LPS from P. aeruginosa strain H103 was highly purified free of proteins and lipids using the Darveau-Hancock method. Briefly, P. aeruginosa was grown overnight in LB broth at 37° C. Cells were collected and washed and the isolated LPS pellets were extracted with a 2:1 chloroform:methanol solution to remove contaminating lipids. Purified LPS samples were quantitated using an assay for the specific sugar 2-keto-3-deoxyoctosonic acid (KDO assay) and then resuspended in endotoxin-free water (Sigma-Aldrich).

Substance | % Biofilm inhibition [1] [%] | Fold increase in MCP1 cf. untreated cells [2] | MCP1 [2] [pg/mL] | Fold change in IL1β relative to no peptide LPS stimulated cells [3] | IL1β Production [3] [pg/mL]
1002-A9: single substituted 1002 peptide (VQRWLIVWAIRK-NH2) [Peptide 1002-A9] | 58 | 14.4 | 3239.9 | 0.05 | 127
1002-K11: single substituted 1002 peptide (VQRWLIVWRIKK-NH2) [Peptide 1002-K11] | 74 | 3.2 | 543.3 | 0.05 | 127
HH2-K2: single substituted HH2 peptide (VKLRIRVAVIRA-NH2) | 69 | 7.9 | 1168 | 0.71 | 937
1002-V4: single substituted 1002 peptide (VQRVLIVWRIRK-NH2) [Peptide 1002-V4] | 69 | 10.5 | 2300.2 | 0.08 | 190
1018-G11: single substituted 1018 peptide (VRLIVAVRIWGR-NH2) [Peptide 1018-G11] | 40 | 48 | 7922 | 0.91 | 1189
1018-V12: single substituted 1018 peptide (VRLIVAVRIWRV-NH2) [Peptide 1018-V12] | 56 | 1.3 | 56 | 0.51 | 673
1018-V9: single substituted 1018 peptide (VRLIVAVRVWRR-NH2) [Peptide 1018-V9] | 53 | 105 | 17711 | 0.11 | 142
HH2-I7: single substituted HH2 peptide (VQLRIRIAVIRA-NH2) | 69 | 8.8 | 1332 | 0.68 | 897
1002-W10: single substituted 1002 peptide (VQRWLIVWRWRK-NH2) [Peptide 1002-W10] | 71 | 8.8 | 1889.1 | 0.05 | 127
1018-I6: single substituted 1018 peptide (VRLIVIVRIWRR-NH2) [Peptide 1018-I6] | 65 | 1.6 | 110 | 0.44 | 582
1018-I8: single substituted 1018 peptide (VRLIVAVIIWRR-NH2) [Peptide 1018-I8] | 39 | 1.0 | 2 | 0.86 | 1125
HH2-V8: single substituted HH2 peptide (VQLRIRVVVIRA-NH2) | 66 | 45 | 7460 | 0.53 | 691
HH2-W8: single substituted HH2 peptide (VQLRIRVWVIRA-NH2) | 75 | 81 | 13556 | 0.42 | 553
HH2-A1: single substituted HH2 peptide (AQLRIRVAVIRA-NH2) | 56 | 14 | 2254 | 1.21 | 1587
1002-I1: single substituted 1002 peptide (IQRWLIVWRIRK-NH2) [Peptide 1002-I1] | 64 | 17.7 | 4059.0 | 0.05 | 127
1018-Q5: single substituted 1018 peptide (VRLIQAVRIWRR-NH2) [Peptide 1018-Q5] | 13 | 0.7 | -54 | 1.03 | 1354
1018-L4: single substituted 1018 peptide (VRLLVAVRIWRR-NH2) [Peptide 1018-L4] | 64 | 0.9 | -10 | 0.10 | 127
1018-K3: single substituted 1018 peptide (VRKIVAVRIWRR-NH2) [Peptide 1018-K3] | 15 | 49 | 8203 | 1.13 | 1489
1018-Q4: single substituted 1018 peptide (VRLQVAVRIWRR-NH2) [Peptide 1018-Q4] | 39 | 0.4 | -104 | 0.35 | 458
1002-R1: single substituted 1002 peptide (RQRWLIVWRIRK-NH2) [Peptide 1002-R1] | 67 | 5.3 | 1043.2 | 0.05 | 127
HH2-L9: single substituted HH2 peptide (VQLRIRVALIRA-NH2) | 65 | 10 | 1527 | 1.04 | 1359
HH2-L2: single substituted HH2 peptide (VLLRIRVAVIRA-NH2) | 69 | 13 | 1950 | 0.89 | 1172
HH2-L11: single substituted HH2 peptide (VQLRIRVAVILA-NH2) | 47 | 40 | 6545 | 1.09 | 1425
1002-A5: single substituted 1002 peptide (VQRWAIVWRIRK-NH2) [Peptide 1002-A5] | 70 | 0.9 | -36.2 | 0.07 | 182
1018-L6: single substituted 1018 peptide (VRLIVLVRIWRR-NH2) [Peptide 1018-L6] | 69 | 0.7 | -60 | 0.26 | 340
